Test results reported in patent US20240310368A1, “DETECTION KIT FOR CATECHOLAMINES AND METABOLITES THEREOF IN PLASMA/URINE AND DETECTION METHOD THEREOF” (Calibra Scientific, Inc., priority 2023, published 2024).
Values joined by “and” are separate entries in the source; they are usually repeats but may differ in a detail not shown here. Equal values may be shown once. One block for each compound: values may come before it.

Tests used:
[1] = Stabilizing effect of accelerated stabilizers (37° C., 14 days) on standard products and quality control products then accelerated at 30° C. for 2 days; assay type: physicochemical; details: for Relative deviation %: 2 days at 30° C. vs Control; for concentration in standard products and quality control products, 2 days at 30° C. / concentration in standard products and quality control products, Control: single replicates
Experimental: Standard products of epinephrine, norepinephrine, dopamine, metanephrine, normetanephrine and 3-methoxytyramine were prepared into mixed solutions, and blank plasma containing a stabilizer was used as a matrix to prepare standard products and quality control products.
(§1) In the present example, the stabilizing effect of the stabilizers on plasma samples, standard products and quality control products after acceleration was further verified. The stabilizers were accelerated at 37° C. for 14 days (equivalent to 1 year at 2-8° C.), added into the plasma samples in proportions and then accelerated at 30° C. for 1.5 days (equivalent to 12 months at −30° C. to −15° C.). The stabilizers were accelerated at 37° C. for 14 days (equivalent to 1 year at 2-8° C.), added into the standard products and the quality control products in proportions and then accelerated at 30° C. for 2 days (equivalent to 18 months at −30° C. to −15° C.).

[2] = Stabilizing effect of accelerated stabilizers (37° C., 14 days) on plasma samples then accelerated at 30° C. for 1.5 days; assay type: physicochemical, human; details: for Relative deviation %: Accelerate vs Control; for concentration in plasma samples, Control / concentration in plasma samples, Accelerate: single replicates; for concentration in plasma samples, Accelerate: stabilizer accelerated 37° C. 14 days, plasma then accelerated at 30° C. for 1.5 days
Experimental: as §1

[3] = Acceleration test of plasma samples with stabilizers (30° C. for 1.5 days, against control plasma stored at −95° C. to −65° C.), LC-MS/MS Area/IS Area
Experimental: Samples were collected in EDTA-anticoagulant blood collection tubes and then rapidly subjected to […] centrifugation at 2-8° C. to separate plasma. 0.95 mL of the plasma was transferred into centrifuge tubes. After 50 μL of the stabilizer was added for uniform mixing, the plasma samples were stored by refrigeration or freezing.
• (1) 500 μL of plasma/urine samples to be tested were taken, and 50 μL of the internal standard solution and 500 μL of the buffer solution were sequentially added for vertex mixing to obtain diluted samples. • (2) The magnetic medium composite material suspension was subjected to full vortex treatment to reach a suspension state, and then subsequent operation was performed. • (3) Different reagents were added into wells of a preprocessing plate according to the follow operation: adding 200 μL of the magnetic medium composite material suspension in column 1, adding 500 μL of the balance solution in column 2, adding 850 μL of the diluted samples in column 3, adding 500 μL of the balance solution in column 4, adding 200 μL of a rinsing solution in column 5, and adding 100 μL of the elution solution in column 6. • (4) An extraction operation procedure was carried out, as shown in Table 5.
Each group of the plasma samples were stored at 30° C. for 1.5 days, and plasma without addition of any compounds stored at −95° C. to −65° C. was used as a control. […] The stabilizing effect of the single-component stabilizers on the plasma samples was investigated.
The stabilizers were mixed with plasma (the volume ratio of the stabilizers to plasma samples was 1:19), and high concentration plasma samples and low concentration plasma samples were prepared by the method provided in Example 1.
With plasma stored at −95° C. to −65° C. as a control, the above plasma samples were separately stored at 30° C. for 1.5 days to investigate the stability. […]

[4] = samples at a high concentration level
[5] = samples at a low concentration level
[6] = plasma at a high concentration level, plasma containing 0.5% of the acid, control plasma 0.624
[7] = plasma at a high concentration level, plasma containing 0.5% of the acid, control plasma 1.522
[8] = plasma at a high concentration level, plasma containing 0.5% of the acid, control plasma 2.27
[9] = plasma at a high concentration level, plasma containing 2.0% of the acid, control plasma 0.624
[10] = plasma at a high concentration level, plasma containing 2.0% of the acid, control plasma 1.522
[11] = plasma at a high concentration level, plasma containing 2.0% of the acid, control plasma 2.27
[12] = plasma at a low concentration level, plasma containing 0.5% of the acid, control plasma 0.079
[13] = plasma at a low concentration level, plasma containing 0.5% of the acid, control plasma 0.219
[14] = plasma at a low concentration level, plasma containing 0.5% of the acid, control plasma 0.233
[15] = plasma at a low concentration level, plasma containing 2.0% of the acid, control plasma 0.079
[16] = plasma at a low concentration level, plasma containing 2.0% of the acid, control plasma 0.219
[17] = plasma at a low concentration level, plasma containing 2.0% of the acid, control plasma 0.233

Structure (SMILES): COc1cc(CCN)ccc1O [Group 3-MT]
Relative deviation % ([1]; High concentration level): −3.54%
average concentration, 2 days at 30° C. ([1]; High concentration level): 1001.8 pg/mL
concentration in standard products and quality control products, 2 days at 30° C. ([1]; High concentration level): 1.00258 ng/mL and 0.99459 ng/mL and 1.00823 ng/mL
average concentration, Control ([1]; High concentration level): 1038.58 pg/mL
concentration in standard products and quality control products, Control ([1]; High concentration level): 1.01486 ng/mL and 1.01865 ng/mL and 1.08223 ng/mL
Relative deviation % ([1]; Low concentration level): −8.93%
average concentration, 2 days at 30° C. ([1]; Low concentration level): 10.93 pg/mL
concentration in standard products and quality control products, 2 days at 30° C. ([1]; Low concentration level): 0.01106 ng/mL and 0.01049 ng/mL and 0.01124 ng/mL
average concentration, Control ([1]; Low concentration level): 12 pg/mL
concentration in standard products and quality control products, Control ([1]; Low concentration level): 0.01245 ng/mL and 0.01066 ng/mL and 0.0129 ng/mL
Relative deviation % ([1]; Medium concentration level): −4.98%
average concentration, 2 days at 30° C. ([1]; Medium concentration level): 182.01 pg/mL
concentration in standard products and quality control products, 2 days at 30° C. ([1]; Medium concentration level): 0.16702 ng/mL and 0.19198 ng/mL and 0.18703 ng/mL
average concentration, Control ([1]; Medium concentration level): 191.55 pg/mL
concentration in standard products and quality control products, Control ([1]; Medium concentration level): 0.19324 ng/mL and 0.19663 ng/mL and 0.18479 ng/mL
Relative deviation % [2, 4]: −2.0%
concentration in plasma samples, Control [2, 4]: 0.38458 ng/mL and 0.38086 ng/mL and 0.37856 ng/mL
concentration in plasma samples, Accelerate [2, 4]: 0.35799 ng/mL and 0.37926 ng/mL and 0.38345 ng/mL
Relative deviation % [2, 5]: 0.6%
concentration in plasma samples, Control [2, 5]: 0.06389 ng/mL and 0.06483 ng/mL and 0.06347 ng/mL
concentration in plasma samples, Accelerate [2, 5]: 0.06307 ng/mL and 0.062 ng/mL and 0.06825 ng/mL

Ratio (Area/IS Area) E ([3]; plasma at a high concentration level, plasma containing 50 μg/mL of the component, control plasma 0.624): 0
Ratio (Area/IS Area) NE ([3]; plasma at a high concentration level, plasma containing 50 μg/mL of the component, control plasma 1.522): 0
Ratio (Area/IS Area) DA ([3]; plasma at a high concentration level, plasma containing 50 μg/mL of the component, control plasma 2.27): 0
Ratio (Area/IS Area) E ([3]; plasma at a high concentration level, plasma containing 200 μg/mL of the component, control plasma 0.624): 0
Ratio (Area/IS Area) NE ([3]; plasma at a high concentration level, plasma containing 200 μg/mL of the component, control plasma 1.522): 0
Ratio (Area/IS Area) DA ([3]; plasma at a high concentration level, plasma containing 200 μg/mL of the component, control plasma 2.27): 0
Ratio (Area/IS Area) E ([3]; plasma at a low concentration level, plasma containing 50 μg/mL of the component, control plasma 0.079): 0
Ratio (Area/IS Area) NE ([3]; plasma at a low concentration level, plasma containing 50 μg/mL of the component, control plasma 0.219): 0
Ratio (Area/IS Area) DA ([3]; plasma at a low concentration level, plasma containing 50 μg/mL of the component, control plasma 0.233): 0
Ratio (Area/IS Area) E ([3]; plasma at a low concentration level, plasma containing 200 μg/mL of the component, control plasma 0.079): 0
Ratio (Area/IS Area) NE ([3]; plasma at a low concentration level, plasma containing 200 μg/mL of the component, control plasma 0.219): 0
Ratio (Area/IS Area) DA ([3]; plasma at a low concentration level, plasma containing 200 μg/mL of the component, control plasma 0.233): 0
Structure (SMILES): O=S([O-])S(=O)(=O)[O-].[Na+].[Na+] [sodium pyrosulfite]

Ratio (Area/IS Area) E [3, 6]: 0
Ratio (Area/IS Area) NE [3, 7]: 0
Ratio (Area/IS Area) DA [3, 8]: 0
Ratio (Area/IS Area) E [3, 9]: 0
Ratio (Area/IS Area) NE [3, 10]: 0
Ratio (Area/IS Area) DA [3, 11]: 0
Ratio (Area/IS Area) E [3, 12]: 0
Ratio (Area/IS Area) NE [3, 13]: 0
Ratio (Area/IS Area) DA [3, 14]: 0
Ratio (Area/IS Area) E [3, 15]: 0
Ratio (Area/IS Area) NE [3, 16]: 0
Ratio (Area/IS Area) DA [3, 17]: 0
Structure (SMILES): O=P(O)(O)O [phosphoric acid]

Ratio (Area/IS Area) E [3, 6]: 0
Ratio (Area/IS Area) NE [3, 7]: 0
Ratio (Area/IS Area) DA [3, 8]: 0
Ratio (Area/IS Area) E [3, 9]: 0
Ratio (Area/IS Area) NE [3, 10]: 0
Ratio (Area/IS Area) DA [3, 11]: 0
Ratio (Area/IS Area) E [3, 12]: 0
Ratio (Area/IS Area) NE [3, 13]: 0
Ratio (Area/IS Area) DA [3, 14]: 0
Ratio (Area/IS Area) E [3, 15]: 0
Ratio (Area/IS Area) NE [3, 16]: 0
Ratio (Area/IS Area) DA [3, 17]: 0
Structure (SMILES): CC(=O)O [acetic acid]
